Test: Stability of isoquercitrin (or catechin) in solution with L-arginine and sodium ascorbate at 50° C., by HPLC
Type: physicochemical
Conditions: aqueous solution with L-arginine and sodium ascorbate; for amount of intact compound remaining, of the initial amount in the solution: HPLC
Procedure: An exemplary isoquercitrin/L-arginine mixture was prepared by mixing 0.01 mol isoquercitrin with an aqueous solution containing 0.02 mol L-arginine, heating the mixture to 80° C. until the isoquercitrin dissolved completely, and adding 0.001 mol sodium ascorbate. After cooling, the stability of isoquercitrin was tested by heating the mixture to 50° C. and quantifying by HPLC the amount of intact isoquercitrin remaining after 0 h, 5 h, and 24 h.

O=c1c(O[C@@H]2O[C@H](CO)[C@@H](O)[C@H](O)[C@H]2O)c(-c2ccc(O)c(O)c2)oc2cc(O)cc(O)c12 [isoquercitrin]
amount of intact compound remaining, of the initial amount in the solution (5 h at 50° C.): 100% | amount of intact compound remaining, of the initial amount in the solution (24 h at 50° C.): 98.1% | compound degraded (after 24 h at 50° C.): 1.9%

From patent publication US10617705B1, “Isoquercitrin compositions” (priority 2019, dated 2020)
